In PubChem BioAssay (NCI):
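Step 1: Grow cells in 96-well plates. Step 2: Expose to compound for 48 hours at 5 concentrations. Step 3: Interpolate endpoints linearly; if unreached, use highest concentration. TGI: concentration producing complete growth inhibition.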

Columns and labels:
Assay in all cases: NCI anticancer screen, dose series, 48 h
[1] = tested on: NCI-H23 lung
[2] = tested on: SK-MEL-5 melanoma
[3] = tested on: ACHN renal
[4] = tested on: TK-10 renal
[5] = tested on: SF-268 CNS
[6] = tested on: U251 CNS
[7] = tested on: RPMI-8226 leukemia
[8] = tested on: SF-295 CNS
[9] = tested on: M14 melanoma
[10] = tested on: SK-MEL-28 melanoma
[11] = tested on: UACC-257 melanoma
[12] = tested on: CCRF-CEM leukemia
[13] = tested on: UO-31 renal
[14] = tested on: LOX IMVI melanoma
[15] = tested on: KM12 colon
[16] = tested on: MOLT-4 leukemia
[17] = tested on: SR leukemia
[18] = tested on: HT29 colon
[19] = tested on: K-562 leukemia
[20] = tested on: LXFL 529 NSCLC
[21] = tested on: RXF 393 renal
[22] = tested on: M19-MEL melanoma
[23] = tested on: NCI-H460 lung
[24] = tested on: SN12C renal
[25] = tested on: SNB-75 CNS
[26] = tested on: 786-0 renal
[27] = tested on: DLD-1 colon
[28] = tested on: A498 renal
[29] = tested on: A549 NSCLC
[30] = tested on: NCI-H226 lung
[31] = tested on: NCI-H522 lung
[32] = tested on: COLO 205 colon
[33] = tested on: MALME-3M melanoma
[34] = tested on: HCT-15 colon
[35] = tested on: SK-MEL-2 melanoma
[36] = tested on: OVCAR-4 ovarian
[37] = tested on: HOP-92 NSCLC
[38] = tested on: SW-620 colon
[39] = tested on: HL-60(TB) leukemia
[40] = tested on: SF-539 CNS
[41] = tested on: UACC-62 melanoma
[42] = tested on: IGROV1 ovarian
[43] = tested on: HOP-18 NSCLC
[44] = tested on: OVCAR-8 ovarian
[45] = tested on: OVCAR-5 ovarian
[46] = tested on: SK-OV-3 ovarian
[47] = tested on: DMS 273 small cell lung
[48] = tested on: HOP-62 NSCLC
[49] = tested on: HCT-116 colon
[50] = tested on: CAKI-1 renal

Measured: TGI

COc1ccc(C2S/C(=C\c3ccccc3)C(=O)N2NC(=O)Cc2ccccc2)cc1 (stereo not given)
> 100 µM: [1] | [2] | [3] | [4] | [5] | [6] | [7] | [8] | [9] | [10] | [11] | [12] | [13] | [14] | [15] | [16] | [17] | [18] | [19] | [20] | [21] | [22] | [23] | [24] | [25] | [26] | [27] | [28] | [29] | [30] | [31] | [32] | [33] | [34] | [35] | [36] | [37] | [38] | [39] | [40] | [41] | [42] | [43] | [44] | [45] | [46] | [47] | [48] | [49] | [50]
